Measured values published in patent US12240811B2, “N-heterocyclic five-membered ring-containing capsid protein assembly inhibitor, pharmaceutical composition and uses thereof” (CHIA TAI TIANQING PHARMACEUTICAL GROUP CO., LTD., priority 2019, dated 2025).

Columns and labels:
[1] = Stability of liver microsomes in vitro, human; type: in vitro ADME
Procedure: (§1) 300 μL of a final incubation system contains 30 μL of liver microsomes (protein concentration: 0.15 mg/mL, Corning), 30 μL NADPH+MgCl2, 3 μL substrate (formulated with acetonitrile), and 237 μL PBS buffer. Duplicate incubation systems of 0.3 mL each were formulated for each species. A total volume of 270 μL of a uniformly mixed solution of the substrate and the enzyme was formulated in each tube, the solution and NADPH were pre-incubated at 37° C. for 5 minutes, respectively. Then 30 μL of the mixed solution of NADPH+MgCl2 was added for reaction. 50 μL of the reaction solution was taken out at 0, 10, 30, and 60 mins, and the reaction was terminated with 300 μL of ice acetonitrile containing an internal standard.
(§2) Sample pre-treatment: To 50 μL of the incubated sample was added 300 μL of ice acetonitrile containing diazepam as an internal standard and then precipitated. After vortexing for 5 minutes, the sample was centrifugated (12000 rpm, 4° C.) for 10 minutes. 75 μL of the supernatant was pipetted into a 96-well plate, and then diluted with 75 μL ultrapure water and mixed uniformly. 0.5 μL of the resulting solution was injected and analyzed by LC-MS/MS.

[2] = Stability of liver microsomes in vitro, mouse; type: in vitro ADME
Procedure: as §1, §2

HBV DNA in serum = test: pAAV/HBV mouse model; type: in vivo, C57BL/6 mice; conditions: 3 mpk intragastric once daily
Procedure: 6-8 week old male C57BL/6 mice (Shanghai Lingchang Biotechnology Co., Ltd.) were used, and each mouse was injected with purified recombinant plasmid pAAV/HBV1.2 ([…]) dissolved in PBS equivalent to a volume of about 10% of its body weight through the tail vein within 3-8 s. Blood was collected from the orbits of the mice at 3 days after the plasmid injection to detect serum HBV DNA. The model mice having uniform serum DNA were selected and divided into: a model control group, a vehicle control group, and a test substance group. Mice in each group were continuously administered intragastrically once daily for 10 days at a dose of 3 mg/kg. The mouse serum was taken on day 0, 4, 7, and 10 after the administration, and the mice were sacrificed on day 10 to take liver tissue samples. The HBV DNA copy numbers in serum and liver of the mice were detected by fluorescent quantitative PCR method.

[3] = Stability of liver microsomes in vitro, rat; type: in vitro ADME
Procedure: as §1, §2

[4] = system: HBV DNA in HepG2.2.15 cells; test: In vitro cell HBV DNA inhibitory activity in HepG2.2.15 cells; type: cell-based; conditions: Hepatitis B virus, 144 h, 6 days treatment, intracellular capsid HBV DNA by qPCR, read-out: EC50, anti-HBV activity in HepG2.2.15 cells
Procedure: A bottle of HepG2.2.15 (Wuhan Institute of Virology) or HepAD38 cells in good exponential growth state was taken, washed once by adding 5 mL PBS, and then thereto was added 3 mL trypsin. After digesting at room temperature for 5 min, 2 mL trypsin was discarded, and then the sample was placed in a cell culture incubator and digested for 10 min. The cells were taken out and observed under a microscope (whether the cells were individually round and there was no adhesion between the cells). 10 mL complete medium was added to terminate the digestion. After pipetting into a single cell suspension, 10 μL of the cell suspension was taken out for cell counting with a cell counter, and then diluted with a complete medium and adjusted to a cell density of 1*10^5 cells/mL. […]
Compounds dissolved in DMSO were subjected to two-fold gradient dilution (10 concentrations in total) with complete medium. […] After lysing at room temperature for 10 min, DNA was extracted, and HBV DNA in the intracellular viral capsid was measured by real-time fluorescence quantitative PCR. The inhibition rate was calculated based on the Ct value, and the EC50 value was calculated by the four-parameter method.

For `Cc1[nH]c(C(=O)C(=O)N[C@H](C)C(F)(F)F)c(C)c1C(=O)Nc1ccc(F)c(C#N)c1` [Example 2, (R)—N-(3-cyano-4-fluorophenyl)-2,4-dimethyl-5-(2-oxo-2-((1,1,1-trifluoroprop-2-yl)amino)acetyl)-1H-pyrrole-3-carboxamide], the “Remaining (%) of human liver microsomes at 60 min” value [1] was 100%, the “Remaining (%) of mouse liver microsomes at 60 min” value [2] was 100% and the “Reduction levels (log10) of HBV DNA in serum, Day 4” value (HBV DNA in serum; Day 4) was 2.92 log10. For the same compound, the “Reduction levels (log10) of HBV DNA in serum, Day 7” value (HBV DNA in serum; Day 7) was 4.09 log10, the “Reduction levels (log10) of HBV DNA in serum, Day 10” value (HBV DNA in serum; Day 10) was 2.42 log10 and the “Remaining (%) of rat liver microsomes at 60 min” value [3] was 99%. The EC50 [4] was 10.7 nM.
